From US20230097753A1, “ALPHA-HYDROXYLATED FATTY-ACID METABOLITES, MEDICAL USES AND USE AS BIOMARKERS” (UNIVERSITAT DE LES ILLES BALEARS, priority 2020, published 2023)
“And” between values parts separate entries of the source, which are not always exact repeats. Equal values may be shown once.

Tests used:
SF-295 glioma cells [1] = test: Cell viability by violet crystal staining, 72 hours; format: cell-based, human; conditions: for IC50: SF-295, 72 hours
Protocol: FIG. 14. Effect of 2OHOA sodium salt, OA and C17:1n-9 sodium salt on cell viability and proliferation of glioma cells. […] Viability was determined by violet crystal staining.
(§1) In order to evaluate the antiproliferative effect of C17:1n-9, its IC50, which corresponds to the amount of a compound needed to reduce cell viability in vitro by 50%, as well as its effect on the regulation of proteins involved in the mechanism of action of 2OHOA, were determined. […] Upon completion of treatment, IC50 was determined by violet crystal staining technique. […] The IC50 of 2OHOA was 1000 μM for non-tumor cells, MRC-5 and astrocytes.

[2] = tested on: MRC-5 (human fibroblasts); test: as above; format: cell-based
Protocol: (§2) FIG. 15. Effect of 2OHOA sodium salt, C17:1n-9 sodium salt, and OA on cell viability and proliferation of non-tumor cells. Non-tumor cell viability curves (A1-A3) MRC-5 (human fibroblasts); and (B1-B3) mouse astrocytes treated with increasing doses of 2OHOA sodium salt (0-1000 μM) (A1 and B1); OA (0-300 μM) (A2 and B2); and C17:1n-9 sodium salt (0-300 μM) (A3 and B3) for 72 hours. Viability was determined by violet crystal staining.
as §1

mouse astrocytes [3] = test: as above; format: cell-based; conditions: Astrocyte, Astrocytes non-tumor cells
Protocol: as §2, §1

SF-295 = test: Cell survival by trypan blue vital exclusion staining, 2OHOA and oxythiamine; format: cell-based, human
Protocol: FIG. 18. Effect of metabolite C17:1n-9 on the action of 2OHOA. […] Cell viability was determined by vital exclusion staining with trypan blue.
(§3) To study whether the metabolite C17:1n-9 can participate in the action of 2OHOA, the effect of pre-incubation with oxythiamine on cell survival and 2OHOA-regulated proteins was studied. To do this, the cell survival of different glioma and non-tumor cell lines treated with 2OHOA (400 μM, 72 hours) and pre-incubated or not with 2 mM […] (90 minutes) was analyzed by counting the cells with the vital exclusion stain with trypan blue. In addition, Western-blot 2OHOA-modulated proteins were studied. In glioma cells, a significant decrease in cell survival was observed after incubation with 2 mM oxythiamine for 72 hours.

[4] = tested on: BIP, CHOP, cJun phosphorylation, phosphorylation of Akt, cyclin D3; test: Western Blot of proliferation and death markers in glioma and non-tumor cell lines; format: cell-based; conditions: 200 μM C17:1n-9, 200 μM OA or 400 μM 2OHOA, 72 hours
Protocol: FIG. 16. Analysis of the effect of different fatty acids on markers of proliferation and death in different cell lines.
as §3

[5] = Fatty acids in rat plasma after oral 2OHOA sodium salt (gas chromatography); format: in vivo; conditions: for Maximum plasma concentration: 2 hours after oral 2OHOA sodium salt 2 g/Kg; for Maximum plasma concentration / Time of maximum plasma concentration: acute treatment
Protocol: FIG. 20. […] Statistical significance is determined with a Wilcoxon test (*p<0.05 and **p<0.01 with respect to baseline levels at 0 hours; $p<0.05 and $$p<0.01 with respect to 2OHOA fatty acid levels).
FIG. 21. […] Statistical significance is determined by a Wilcoxon test (*p<0.05 and **p<0.01 with respect to baseline levels at 0 hours; $p<0.05 and $$p<0.01 with respect to 2OHOA fatty acid levels).
For the present study, 2 g of 2OHOA/Kg sodium salt was administered to rats 12-14 weeks of age orally for 15 days. Subsequently, plasma samples were extracted at different times (0, 1, 2, 3, 4, 6, 8 and 24 h) from day 1 (acute treatment) and 15 (chronic treatment). Finally, the fatty acid profile in plasma samples was analyzed by gas chromatography.

[6] = Fatty acids in plasma of patients with advanced glioma treated with 2OHOA sodium salt; format: in vivo, human; conditions: for Time of peak plasma levels: first day
Protocol: FIG. 24. Analysis of composition in fatty acids in human patients with advanced glioma. (A) Representative chromatogram of the fatty acid composition of a patient with glioma responsive to treatment with 2OHOA sodium salt (12 g/day, 21 days) and determined in plasma samples obtained at different treatment times (0, 4 and 360 hours, 15 days) by gas chromatography. […] The C17:0 margaric acid in the chromatograms was quantified as internal control.
Plasma samples were obtained at different times (0, 2, 4, 6, 8 hours and after 8, 15, 21 and 28 days after treatment with 2OHOA) and were subsequently given for fatty acid analysis using the gas chromatography technique.

SF-295 glioma cells [7] = conditions: human, 24 h, 400 μM
Description: (§4) Analysis of the composition of fatty acids in different glioma and non-tumor cell lines after treatment with 2OHOA sodium salt. […] The black bar corresponds to the concentration of each fatty acid in the control, and the white bar corresponds to the concentration of the fatty acid after treatment with 2OHOA sodium salt. C17:0 margaric acid is included as an internal control. The columns show the mean±SEM of three independent experiments expressed in nmoles and normalized per mg of protein. Statistical significance is determined with a Student's t-test (**p<0.01, ***p<0.001 with respect to the control).

[8] = tested on: MRC-5 (human fibroblasts); conditions: 24 h, 400 μM
Description: as §4

mouse astrocytes [9] = conditions: 24 h, 400 μM
Description: as §4

[10] = defined in preclinical studies; cited from earlier work
[11] = tested on: MRC-5 (human fibroblasts); test: Fatty acid composition by gas chromatography after treatment with 2OHOA; conditions: MRC-5, 2OHOA 400 μM for 24 hours
Description: as §4

mouse astrocytes [12] = test: as above; conditions: 2OHOA 400 μM for 24 hours
Description: as §4

[13] = patients, 12 g/day 2OHOA sodium salt

For CCCCCCCC/C=C\CCCCCCC(O)C(=O)O (stereo not shown) [2OHOA, 2-hydroxyoleic acid], the IC50 (SF-295 glioma cells [1]; Homo sapiens) was 399 ± 11.5 µM, the “IC50 of 2OHOA relative to that of metabolite C17:1n-9” value (SF-295 glioma cells [1]; SF-295) was 1.60 times and the “IC50 of 2OHOA relative to that of non-hydroxy analogue OA” value (SF-295 glioma cells [1]; SF-295) was 1.56 times. It also gave an IC50 ([2]; Homo sapiens, MRC5, MRC-5 non-tumor cells) greater than 1000 µM, an IC50 (mouse astrocytes [3]) greater than 1000 µM and a Cell death (SF-295; SF-295, 2OHOA 400 μM, 72 hours) of 23.97±1.25%. The Cell death (SF-295; SF-295, 2OHOA combined with 2 mM oxythiamine) was 10.85±0.58%, the “Recovery in cell viability” value (SF-295; SF-295, 2OHOA combined with 2 mM oxythiamine vs 2OHOA alone) was 17.25% and the “Effect on signaling proteins (Western Blot)” value [4] was “increased levels of BIP, CHOP and cJun phosphorylation and decreased phosphorylation of Akt and cyclin D3 levels”. For the same compound, the Maximum plasma concentration [5] was 26.23±5.79 nmol/ml plasma, the “Time of maximum plasma concentration” value ([5]; oral 2OHOA sodium salt 2 g/Kg) was 2 h and the concentration at 8 h ([5]; plasma, oral 2OHOA sodium salt 2 g/Kg, read-out: Plasma level after 8 hours) was 7.12 ± 1.56 µM. It also gave a concentration at 0 h ([5]; plasma, oral 2OHOA sodium salt 2 g/Kg, read-out: Plasma level at 0 hours (initial levels, prior to administration)) of 1.22 ± 0.33 µM, a concentration at 24 h ([5]; plasma, oral 2OHOA sodium salt 2 g/Kg, read-out: Plasma level at 24 hours (trough values)) of 2.8 ± 0.69 µM and a concentration at 4 h ([6]; human, plasma, oral, patients (responders and non-responders), 12 g/day 2OHOA sodium salt, read-out: Plasma level 4 hours after the first intake) of 53.1 ± 6.52 µM. It also gave a concentration at 8 h ([6]; human, plasma, oral, patients, 12 g/day 2OHOA sodium salt, read-out: Plasma level 8 hours after treatment) of 25.4 ± 3.99 µM, a concentration at 360 h ([6]; human, plasma, oral, patients, 12 g/day 2OHOA sodium salt, read-out: Plasma level after 15 days (360 hours) of treatment) of 185 ± 25.6 µM and a concentration at 192 h ([6]; human, plasma, oral, patients, 12 g/day 2OHOA sodium salt, read-out: Plasma level at 8 days of treatment (192 hours)) of 25.4 ± 3.99 µM. The “Plasma level after 15 days (360 hours) of treatment” value [6, 13] was 141.10±16.35 nmol/ml plasma, the “Plasma level at 8 days of treatment (192 hours)” value [6, 13] was 25.39±3.99 nmol/ml plasma and the “Plasma level at 21 days of treatment” value [6, 13] was 184.70±25.60 nmol/ml plasma. For the same compound, the “Time of peak plasma levels” value [6, 13] was 4 h, the “Level of the fatty acid in cells after treatment with 2OHOA” value (from here on “Level of the fatty acid in cells”) (SF-295 glioma cells [7]) was 9.21 nmol/mg and the “2OHOA accumulated more than its metabolite C17:1n-9” value [8] was 46%. The “2OHOA accumulated more than its metabolite C17:1n-9” value (mouse astrocytes [9]) was 38.27% and the Maximum tolerated dose [10] was 2000 mg/kg.
For CCCCCCCC/C=C\CCCCCCC(=O)O [C17:1n-9, 8Z-heptadecenoic acid], the IC50 (SF-295 glioma cells [1]) was 249 ± 6.02 µM, the IC50 ([2]; MRC-5 non-tumor cells) was 248 ± 7.28 µM and the “Effect on signaling proteins (Western Blot)” value [4] was “did not produce changes in any of these proteins”. The Maximum plasma concentration [5] was 60.47±6.53 nmol/ml plasma, the “Plasma level after 8 hours” value ([5]; oral 2OHOA sodium salt 2 g/Kg) was 23.31±5.18 nmol/mL plasma and the “Plasma level at 0 hours (initial levels, prior to administration)” value ([5]; oral 2OHOA sodium salt 2 g/Kg) was 8.45±2.52 nmol/ml plasma. For the same compound, the “Plasma level at 24 hours (trough values)” value ([5]; oral 2OHOA sodium salt 2 g/Kg) was 14.03±2.20 nmol/ml plasma and 14.03±2.21 nmol/ml plasma, the “Time of maximum plasma concentration” value ([5]; oral 2OHOA sodium salt 2 g/Kg) was 2 h and the “Plasma level 4 hours after the first intake” value ([6]; patients (responders and non-responders), 12 g/day 2OHOA sodium salt) was 122.80±10.61 nmol/ml of plasma. For the same compound, the “C17:1n-9 plasma levels relative to 2OHOA” value ([6]; patients at 21 days of treatment) was 1.90 times, the “C17:1n-9 plasma levels relative to 2OHOA” value ([6]; patients treated for 8 days) was 3.66 times and the “C17:1n-9 plasma levels relative to 2OHOA” value ([6]; patients treated for 15 days) was 2.20 times. The “Plasma level 8 hours after treatment” value [6, 13] was 92.89±9.39 nmol/ml of plasma, the “Plasma level at 21 days of treatment” value [6, 13] was 366.9±72.47 nmol/ml plasma and the “Time of peak plasma levels” value [6, 13] was 4 h. The “Level of the fatty acid in cells” value [11] was 14.00 nmol/mg and the “Level of the fatty acid in cells” value (mouse astrocytes [12]) was 7.58 ± 0.70 nmol/mg and 7.58 nmol/mg.
